Earlier results on one compound are cited in paper PMC4946565 (Bioorganic & medicinal chemistry letters, 2016).

SMILES strings stand for the structures.

The subject of this series is VMAT2. The note with it: selectivity VMAT2 over DAT; ref [4], [9], [10].

For `CN1[C@@H](CC(=O)c2ccccc2)CCC[C@H]1C[C@H](O)c1ccccc1` [Lobeline, lobeline], the “fold higher affinity for VMAT2 compared to DAT” value was “about 100 fold”.
